Experimental data reported in PubChem BioAssay AID248 (DTP/NCI, 2004).
“And” between values parts separate entries of the source, which are not always exact repeats. Equal entries are not always repeated. Toxic doses and inconclusive results are not listed. Rule as the data show it: active = T/C of 150% or more; inactive = T/C below 125%.

Tested on: L1210 leukemia ip in BDF1 mice, survival T/C
Test: NCI In Vivo Anticancer Drug Screen. Data for tumor model L1210 Leukemia (intraperitoneal) in B6D2F1 (BDF1) mice
Conditions: endpoint: mean survival time, higher = longer survival
Summary of the method: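 Transplanted-tumor mice were given test agent; controls received vehicle only. Survival readings from the two groups were divided (treated over control).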

[1] = dose: 50.0 mg/kg/injection, schedule: Q01DX009 (ip), vehicle: saline
[2] = dose: 100.0 mg/kg/injection, schedule: Q01DX009 (ip), vehicle: saline
[3] = dose: 100.0 mg/kg/injection, schedule: Q04DX003 (ip), vehicle: saline
[4] = dose: 200.0 mg/kg/injection, schedule: Q04DX003 (ip), vehicle: saline
[5] = dose: 400.0 mg/kg/injection, schedule: Q04DX003 (ip), vehicle: saline
[6] = dose: 100.0 mg/kg/injection, schedule: Q04DX002 (ip), vehicle: saline
[7] = dose: 100.0 mg/kg/injection, schedule: Q01DX009 (ip), vehicle: Klucel (hydroxypropylcellulose) (HPC)
[8] = dose: 100.0 mg/kg/injection, schedule: Q04DX003 (ip), vehicle: Klucel (hydroxypropylcellulose) (HPC)
[9] = dose: 200.0 mg/kg/injection, schedule: Q01DX009 (ip), vehicle: Klucel (hydroxypropylcellulose) (HPC)
[10] = dose: 200.0 mg/kg/injection, schedule: Q04DX003 (ip), vehicle: Klucel (hydroxypropylcellulose) (HPC)
[11] = dose: 400.0 mg/kg/injection, schedule: Q01DX009 (ip), vehicle: Klucel (hydroxypropylcellulose) (HPC)
[12] = dose: 400.0 mg/kg/injection, schedule: Q04DX003 (ip), vehicle: Klucel (hydroxypropylcellulose) (HPC)

Measured: T/C

ClC1=C(Cl)C2(Cl)CCC1(Cl)C2Cl (stereo not given)
inactive: [1] 103 % of control | [2] 98 % of control | [3] 104 % of control | dose: 200.0 mg/kg/injection, schedule: Q01DX009 (ip), vehicle: saline 95 % of control | [4] 103 % of control | [5] 97 % of control

O=c1[nH]c(=O)c2nc3cc(Br)cnc3nc2[nH]1
inactive: [3] 95 % of control | [4] 102 % of control | [5] 103 % of control

[NH-]C(CC(N)=O)C(=O)O.[NH-]C(CC(N)=O)C(=O)O.[Ni+2] (stereo not given)
inactive: dose: 6.25 mg/kg/injection, schedule: Q01DX009 (ip), vehicle: water 92 % of control | dose: 12.5 mg/kg/injection, schedule: Q01DX009 (ip), vehicle: water 91 % of control | dose: 25.0 mg/kg/injection, schedule: Q01DX009 (ip), vehicle: water 88 % of control | dose: 25.0 mg/kg/injection, schedule: Q04DX002 (ip), vehicle: saline 110 % of control | dose: 50.0 mg/kg/injection, schedule: Q04DX002 (ip), vehicle: saline 100 % of control | dose: 50.0 mg/kg/injection, schedule: Q04DX003 (ip), vehicle: water 112 % of control | [6] 123 % of control | dose: 100.0 mg/kg/injection, schedule: Q04DX003 (ip), vehicle: water 117 % of control

Nc1ncnc2c1ncn2C1OC(COP(=O)(O)OCC(N)Cc2ccccc2)C(O)C1O (stereo not given)
inactive: dose: 100.0 mg/kg/injection, schedule: Q01DX005 (ip), vehicle: saline 87 % of control | dose: 200.0 mg/kg/injection, schedule: Q01DX005 (ip), vehicle: saline 107 % of control

CCCCCCCCCCC1CCCC1
inactive: dose: 100.0 mg/kg/injection, schedule: Q04DX002 (ip), vehicle: saline with Tween-80 94 % of control | dose: 200.0 mg/kg/injection, schedule: Q04DX002 (ip), vehicle: saline with Tween-80 98 % of control | dose: 400.0 mg/kg/injection, schedule: Q04DX002 (ip), vehicle: saline with Tween-80 94 % of control

CC(=O)N1c2cc3ccccc3cc2N(C(C)=O)c2cc3ccccc3cc21
inactive: dose: 100.0 mg/kg/injection, schedule: Q01DX001 (ip), vehicle: acetone 92 % of control | dose: 100.0 mg/kg/injection, schedule: Q01DX009 (ip), vehicle: saline with Tween-80 103 % of control | dose: 200.0 mg/kg/injection, schedule: Q01DX001 (ip), vehicle: acetone 90 % of control | dose: 200.0 mg/kg/injection, schedule: Q01DX009 (ip), vehicle: saline with Tween-80 106 % of control | dose: 400.0 mg/kg/injection, schedule: Q01DX001 (ip), vehicle: acetone 88 % of control | dose: 400.0 mg/kg/injection, schedule: Q01DX009 (ip), vehicle: saline with Tween-80 95 % of control

N#CC1c2cc(OC(=O)c3ccccc3)ccc2C=CN1C(=O)c1ccccc1 (stereo not given)
inactive: dose: 100.0 mg/kg/injection, schedule: Q04DX003 (ip), vehicle: gum acacia 89 % of control | dose: 200.0 mg/kg/injection, schedule: Q04DX003 (ip), vehicle: gum acacia 89 % of control

Cc1ncc(C(O)c2ccc(N(C)C)cc2)n1Cc1ccccc1 (stereo not given)
inactive: dose: 100.0 mg/kg/injection, schedule: Q01DX001 (ip), vehicle: Klucel (hydroxypropylcellulose) (HPC) 95 % of control | [7] 100 % of control and 104 % of control | dose: 100.0 mg/kg/injection, schedule: Q04DX002 (ip), vehicle: Klucel (hydroxypropylcellulose) (HPC) 111 % of control | [8] 103 % of control | dose: 200.0 mg/kg/injection, schedule: Q01DX001 (ip), vehicle: Klucel (hydroxypropylcellulose) (HPC) 95 % of control | [9] 103 % of control and 115 % of control | dose: 200.0 mg/kg/injection, schedule: Q04DX002 (ip), vehicle: Klucel (hydroxypropylcellulose) (HPC) 94 % of control and 115 % of control | [10] 105 % of control | dose: 400.0 mg/kg/injection, schedule: Q01DX001 (ip), vehicle: Klucel (hydroxypropylcellulose) (HPC) 89 % of control | [11] 88 % of control | dose: 400.0 mg/kg/injection, schedule: Q04DX002 (ip), vehicle: Klucel (hydroxypropylcellulose) (HPC) 98 % of control and 99 % of control | [12] 103 % of control

Cc1ccc(Nc2ccc(Nc3ccc(C)cc3)c3c2C(=O)c2ccccc2C3=O)cc1
inactive: dose: 100.0 mg/kg/injection, schedule: Q04DX003 (ip), vehicle: saline with Tween-80 86 % of control | dose: 200.0 mg/kg/injection, schedule: Q04DX003 (ip), vehicle: saline with Tween-80 87 % of control | dose: 400.0 mg/kg/injection, schedule: Q04DX003 (ip), vehicle: saline with Tween-80 92 % of control

Nc1nc(N)c2nc(CNc3cccc4ccccc34)cnc2n1
inactive: dose: 10.0 mg/kg/injection, schedule: Q01DX009 (ip), vehicle: Klucel (hydroxypropylcellulose) (HPC) 102 % of control | dose: 20.0 mg/kg/injection, schedule: Q01DX009 (ip), vehicle: Klucel (hydroxypropylcellulose) (HPC) 102 % of control | dose: 40.0 mg/kg/injection, schedule: Q01DX009 (ip), vehicle: Klucel (hydroxypropylcellulose) (HPC) 100 % of control

N#CC(C#N)=CN1CCCC1
inactive: dose: 5.0 mg/kg/injection, schedule: Q01DX009 (ip), vehicle: saline with Tween-80 89 % of control | dose: 10.0 mg/kg/injection, schedule: Q01DX009 (ip), vehicle: saline with Tween-80 91 % of control | dose: 20.0 mg/kg/injection, schedule: Q01DX009 (ip), vehicle: saline with Tween-80 93 % of control

C[n+]1c(/C=C/c2ccnc3c(O)cccc23)sc2ccccc21
inactive: dose: 15.0 mg/kg/injection, schedule: Q01DX001 (ip), vehicle: saline 105 % of control | dose: 30.0 mg/kg/injection, schedule: Q01DX001 (ip), vehicle: saline 97 % of control

CN(Cc1ccc(Cl)cc1)C(=O)NCCCCCCNC(=O)N(C)Cc1ccc(Cl)cc1
inactive: [7] 100 % of control | [9] 94 % of control | [11] 92 % of control

CCc1ccc(NC(=O)C(c2ccccc2)c2ccccc2)cc1
inactive: dose: 50.0 mg/kg/injection, schedule: Q04DX003 (ip), vehicle: Klucel (hydroxypropylcellulose) (HPC) 101 % of control | [7] 92 % of control | [8] 100 % of control | [9] 89 % of control | [10] 93 % of control | [11] 89 % of control | [12] 93 % of control

CC(C)CNS(=O)(=O)c1ncnc2nc[nH]c12
inactive: dose: 6.0 mg/kg/injection, schedule: Q01DX Z (ip), vehicle: carboxymethylcellulose (CMC) 103 % of control | dose: 12.0 mg/kg/injection, schedule: Q01DX Z (ip), vehicle: carboxymethylcellulose (CMC) 100 % of control | dose: 25.0 mg/kg/injection, schedule: Q01DX Z (ip), vehicle: carboxymethylcellulose (CMC) 106 % of control | dose: 50.0 mg/kg/injection, schedule: Q01DX Z (ip), vehicle: carboxymethylcellulose (CMC) 92 % of control

O=C(CCCC(=O)N/N=C/c1cc(O)ccc1O)N/N=C\c1cc(O)ccc1O
inactive: dose: 50.0 mg/kg/injection, schedule: Q01DX001 (ip), vehicle: saline 102 % of control | dose: 100.0 mg/kg/injection, schedule: Q01DX001 (ip), vehicle: saline 96 % of control | dose: 200.0 mg/kg/injection, schedule: Q01DX001 (ip), vehicle: saline 90 % of control | dose: 400.0 mg/kg/injection, schedule: Q01DX001 (ip), vehicle: saline 98 % of control

Cc1ccc(NS(=O)(=O)c2ccc(F)cc2)c(C)c1
inactive: [7] 94 % of control | [8] 100 % of control | [9] 94 % of control | [10] 97 % of control | [11] 101 % of control | [12] 101 % of control

CCCCCC/C(=C\c1ccc(O)cc1)C(=O)O
inactive: dose: 50.0 mg/kg/injection, schedule: Q01DX001 (ip), vehicle: carboxymethylcellulose (CMC) 97 % of control | dose: 100.0 mg/kg/injection, schedule: Q01DX001 (ip), vehicle: carboxymethylcellulose (CMC) 103 % of control | dose: 200.0 mg/kg/injection, schedule: Q01DX001 (ip), vehicle: carboxymethylcellulose (CMC) 105 % of control | dose: 400.0 mg/kg/injection, schedule: Q01DX001 (ip), vehicle: carboxymethylcellulose (CMC) 100 % of control

CCCNC(Cc1ccccc1)c1ccco1 (stereo not given)
inactive: [1] 104 % of control | [2] 110 % of control | [6] 97 % of control | dose: 200.0 mg/kg/injection, schedule: Q04DX002 (ip), vehicle: saline 93 % of control

O=c1nc2n(O)cccc-2c(=O)[nH]1
inactive: dose: 50.0 mg/kg/injection, schedule: Q01DX009 (ip), vehicle: Klucel (hydroxypropylcellulose) (HPC) 96 % of control | [7] 100 % of control | [8] 96 % of control | [9] 101 % of control | [10] 102 % of control
